Assay results: the supplement of paper PMC10307832

compound: CC(C)(C)c1cc(NC(=O)Nc2ccc(-c3cn4c(n3)sc3cc(OCCN5CCOCC5)ccc34)cc2)no1 [Quizartinib] + Cc1nc(NC(=O)N2CCC[C@H]2C(N)=O)sc1-c1ccnc(C(C)(C)C(F)(F)F)c1 [Alpelisib] (partner 2 µM); test: relative viability (nuclei count vs DMSO), 5 days (fraction); higher = more cells survive; conditions: first compound 0.001 µM
Summary of the method: (§1)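 Lung cancer cell lines, seeded in 1536-well plates, were treated the following day by pin tool with a single drug or with five library-drug doses (not always all listed) in √10 steps on top of a fixed anchor-drug dose. Cells were fixed and nuclei stained in one step after 5 days, and nuclei were counted. Relative viability is the nuclei count for treated wells divided by that for vehicle wells, reported as medians of duplicate plates.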

In order of falling relative viability:
1. NCI-H2009  1.14
2. NCI-H2087  1.05
3. NCI-H1395  1.05
4. NCI-H1915  1.03
5. NCI-H650  1.02
6. NCI-H647  1.01
7. LCLC-103H  1.01
8. LXF-289  0.992
9. HCC-827  0.952
10. ABC-1  0.951
11. UMC-11  0.924
12. Calu-6  0.92
13. NCI-H1437  0.911
14. NCI-H1563  0.893
15. SK-MES-1  0.838
16. NCI-H1355  0.814
17. EKVX  0.799
18. NCI-H1792  0.799
19. NCI-H520  0.792
20. RERF-LC-KJ  0.78
21. NCI-H2228  0.771
22. NCI-H2170  0.769
23. COR-L 105  0.751
24. NCI-H1651  0.749
25. IA-LM  0.695
26. EPLC-272H  0.667
27. EBC-1  0.664
28. A549  0.661
29. NCI-H2347  0.655
30. NCI-H2023  0.562
31. NCI-H1734  0.561
32. H3255  0.55
33. LU99A  0.448
34. HCC-366  0.348
35. HCC-78  0.343
36. NCI-H1703  0.34

same assay, conditions: first compound 0.003162 µM

In order of rising relative viability:
1. NCI-H1703  0.196
2. LCLC-97TM1  0.22
3. HCC-366  0.31
4. HCC-78  0.33
5. SK-MES-1  0.424
6. NCI-H2023  0.467
7. LU99A  0.512
8. LCLC-103H  0.533
9. NCI-H2228  0.58
10. RERF-LC-KJ  0.597
11. H3255  0.619
12. NCI-H1792  0.667
13. NCI-H2170  0.683
14. EBC-1  0.708
15. NCI-H1734  0.716
16. IA-LM  0.761
17. A549  0.763
18. NCI-H520  0.768
19. EKVX  0.841
20. HCC-827  0.858
21. NCI-H1563  0.871
22. NCI-H1651  0.872
23. NCI-H1437  0.883
24. COR-L 105  0.898
25. Calu-6  0.915
26. NCI-H1355  0.927
27. UMC-11  0.948
28. NCI-H2087  0.98
29. NCI-H2347  0.995
30. ABC-1  0.996
31. LXF-289  0.999
32. NCI-H1299  1.01
33. NCI-H1395  1.01
34. NCI-H2009  1.01
35. NCI-H1915  1.01
36. EPLC-272H  1.04
37. NCI-H647  1.06
38. NCI-H650  1.12

same assay, conditions: first compound 0.01 µM

In order of rising relative viability:
1. NCI-H1703  0.209
2. LCLC-97TM1  0.267
3. HCC-78  0.393
4. HCC-366  0.448
5. LU99A  0.627
6. NCI-H1734  0.642
7. NCI-H2023  0.665
8. NCI-H1792  0.711
9. RERF-LC-KJ  0.782
10. NCI-H2228  0.79
11. H3255  0.795
12. IA-LM  0.808
13. NCI-H1355  0.812
14. A549  0.849
15. EBC-1  0.89
16. EKVX  0.924
17. NCI-H520  0.929
18. LCLC-103H  0.94
19. NCI-H1563  0.945
20. EPLC-272H  0.95
21. NCI-H2170  0.956
22. HCC-827  0.965
23. Calu-6  1
24. ABC-1  1.02
25. NCI-H1651  1.04
26. SK-MES-1  1.06
27. NCI-H1915  1.06
28. LXF-289  1.1
29. NCI-H1299  1.11
30. NCI-H2347  1.12
31. COR-L 105  1.12
32. UMC-11  1.13
33. NCI-H1437  1.13
34. NCI-H650  1.14
35. NCI-H2087  1.19
36. NCI-H2009  1.19
37. NCI-H1395  1.21
38. NCI-H647  1.25

same assay, conditions: first compound 0.03162 µM

In order of rising relative viability:
1. NCI-H1703  0.182
2. LCLC-97TM1  0.261
3. HCC-78  0.315
4. NCI-H2023  0.323
5. HCC-366  0.404
6. ABC-1  0.497
7. NCI-H1792  0.499
8. LU99A  0.517
9. COR-L 105  0.527
10. H3255  0.63
11. NCI-H1734  0.699
12. NCI-H2228  0.721
13. RERF-LC-KJ  0.747
14. NCI-H1437  0.749
15. NCI-H1651  0.751
16. Calu-6  0.761
17. NCI-H2170  0.787
18. IA-LM  0.789
19. NCI-H520  0.837
20. SK-MES-1  0.865
21. NCI-H1355  0.865
22. EKVX  0.914
23. EBC-1  0.915
24. UMC-11  0.947
25. EPLC-272H  0.969
26. HCC-827  0.976
27. LXF-289  1.01
28. LCLC-103H  1.04
29. NCI-H1299  1.06
30. NCI-H1395  1.06
31. NCI-H2009  1.09
32. NCI-H1915  1.11
33. NCI-H2347  1.11
34. NCI-H647  1.13
35. NCI-H650  1.14
36. NCI-H2087  1.14

same assay, conditions: first compound 0.1 µM

In order of rising relative viability:
1. NCI-H1703  0.22
2. LCLC-97TM1  0.252
3. HCC-78  0.342
4. HCC-366  0.358
5. LU99A  0.431
6. NCI-H2023  0.575
7. NCI-H520  0.597
8. NCI-H1734  0.665
9. NCI-H2228  0.678
10. RERF-LC-KJ  0.69
11. NCI-H1792  0.703
12. NCI-H1437  0.711
13. H3255  0.797
14. NCI-H2170  0.809
15. EBC-1  0.812
16. NCI-H1563  0.826
17. NCI-H1355  0.827
18. A549  0.833
19. NCI-H2087  0.836
20. IA-LM  0.844
21. NCI-H1651  0.904
22. LCLC-103H  0.943
23. Calu-6  0.947
24. LXF-289  0.947
25. SK-MES-1  0.97
26. EKVX  0.973
27. NCI-H1299  0.986
28. HCC-827  0.987
29. NCI-H1395  0.995
30. COR-L 105  1.05
31. EPLC-272H  1.06
32. UMC-11  1.1
33. ABC-1  1.12
34. NCI-H2009  1.13
35. NCI-H650  1.14
36. NCI-H2347  1.14
37. NCI-H1915  1.16
38. NCI-H647  1.33

compound: COCC[n+]1c2c(n(Cc3cnccn3)c1C)C(=O)c1ccccc1C2=O [YM155] + CC(=O)Nc1cccc(-n2c(=O)n(C3CC3)c(=O)c3c(Nc4ccc(I)cc4F)n(C)c(=O)c(C)c32)c1 [Trametinib] (partner 0.02 µM); test: as above; conditions: first compound 0.002 µM
Summary of the method: as §1

In order of rising relative viability:
1. NCI-H2087  0.143
2. NCI-H2009  0.273
3. NCI-H2347  0.279
4. EPLC-272H  0.294
5. NCI-H1915  0.303
6. NCI-H647  0.342
7. HCC-366  0.353
8. EKVX  0.394
9. NCI-H1437  0.42
10. COR-L 105  0.433
11. NCI-H1650  0.478
12. NCI-H2228  0.485
13. NCI-H1792  0.498
14. NCI-H1355  0.509
15. HCC-827  0.528
16. NCI-H2023  0.538
17. LU99A  0.539
18. UMC-11  0.56
19. H3255  0.583
20. SK-MES-1  0.588
21. NCI-H522  0.625
22. LCLC-103H  0.647
23. LXF-289  0.665
24. NCI-H1734  0.672
25. HCC-78  0.698
26. NCI-H520  0.735
27. NCI-H2342  0.738
28. ChaGo-K-1  0.832
29. NCI-H1651  0.863
30. NCI-H2170  0.878
31. RERF-LC-KJ  0.896
32. NCI-H1395  1.04
33. NCI-H650  1.05

same assay, conditions: first compound 0.006325 µM

In order of falling relative viability:
1. NCI-H1395  1.02
2. RERF-LC-KJ  0.952
3. NCI-H2170  0.936
4. ChaGo-K-1  0.929
5. SW 900  0.922
6. NCI-H650  0.875
7. HCC-78  0.756
8. NCI-H1651  0.755
9. LXF-289  0.746
10. UMC-11  0.745
11. NCI-H522  0.711
12. NCI-H2342  0.71
13. SK-MES-1  0.701
14. H3255  0.666
15. NCI-H1734  0.658
16. LCLC-103H  0.637
17. NCI-H2023  0.617
18. NCI-H520  0.599
19. NCI-H1650  0.581
20. NCI-H1437  0.564
21. HCC-827  0.531
22. LU99A  0.496
23. NCI-H647  0.456
24. NCI-H1355  0.454
25. COR-L 105  0.449
26. NCI-H2228  0.444
27. HCC-366  0.421
28. EKVX  0.369
29. NCI-H1792  0.366
30. NCI-H2009  0.295
31. NCI-H1915  0.295
32. EPLC-272H  0.27
33. NCI-H2347  0.258
34. NCI-H2087  0.179
35. LCLC-97TM1  0.178

same assay, conditions: first compound 0.02 µM

In order of rising relative viability:
1. LCLC-97TM1  0.23
2. NCI-H2087  0.271
3. NCI-H1915  0.3
4. NCI-H2347  0.306
5. EPLC-272H  0.335
6. NCI-H2009  0.354
7. HCC-366  0.371
8. EKVX  0.376
9. NCI-H2023  0.451
10. NCI-H1650  0.458
11. SK-MES-1  0.459
12. NCI-H647  0.463
13. NCI-H1792  0.468
14. NCI-H1355  0.473
15. COR-L 105  0.484
16. NCI-H1437  0.534
17. NCI-H2228  0.565
18. HCC-827  0.605
19. H3255  0.632
20. LU99A  0.641
21. LCLC-103H  0.674
22. LXF-289  0.697
23. NCI-H522  0.71
24. NCI-H1734  0.724
25. NCI-H520  0.75
26. UMC-11  0.771
27. HCC-78  0.785
28. NCI-H2342  0.829
29. SW 900  0.843
30. ChaGo-K-1  0.865
31. NCI-H1651  0.867
32. NCI-H2170  0.903
33. RERF-LC-KJ  0.942
34. NCI-H650  0.967
35. NCI-H1395  1.08

same assay, conditions: first compound 0.06325 µM

In order of rising relative viability:
1. LCLC-97TM1  0.21
2. SK-MES-1  0.218
3. NCI-H2087  0.225
4. NCI-H2023  0.241
5. EKVX  0.249
6. EPLC-272H  0.302
7. NCI-H1355  0.406
8. NCI-H647  0.472
9. H3255  0.542
10. LU99A  0.56
11. NCI-H2228  0.589
12. NCI-H1792  0.599
13. HCC-827  0.628
14. RERF-LC-KJ  0.707
15. LXF-289  0.711
16. UMC-11  0.739
17. NCI-H520  0.741
18. NCI-H1651  0.962
19. NCI-H650  1.04
